Assay [1] can be described thus: viability loss in THP-1 monocytes – THP-1 cells, cytotoxicity control for Vif-APOBEC3G degradation inhibitor project, dose response (AID 1117359). Format: functional. Particulars: THP-1.
Assay [2] deals with T1, Rac GTPase-activating protein 1 (Homo sapiens, UniProt Q9H0H5).
T1 sequence (Q9H0H5 whole entry): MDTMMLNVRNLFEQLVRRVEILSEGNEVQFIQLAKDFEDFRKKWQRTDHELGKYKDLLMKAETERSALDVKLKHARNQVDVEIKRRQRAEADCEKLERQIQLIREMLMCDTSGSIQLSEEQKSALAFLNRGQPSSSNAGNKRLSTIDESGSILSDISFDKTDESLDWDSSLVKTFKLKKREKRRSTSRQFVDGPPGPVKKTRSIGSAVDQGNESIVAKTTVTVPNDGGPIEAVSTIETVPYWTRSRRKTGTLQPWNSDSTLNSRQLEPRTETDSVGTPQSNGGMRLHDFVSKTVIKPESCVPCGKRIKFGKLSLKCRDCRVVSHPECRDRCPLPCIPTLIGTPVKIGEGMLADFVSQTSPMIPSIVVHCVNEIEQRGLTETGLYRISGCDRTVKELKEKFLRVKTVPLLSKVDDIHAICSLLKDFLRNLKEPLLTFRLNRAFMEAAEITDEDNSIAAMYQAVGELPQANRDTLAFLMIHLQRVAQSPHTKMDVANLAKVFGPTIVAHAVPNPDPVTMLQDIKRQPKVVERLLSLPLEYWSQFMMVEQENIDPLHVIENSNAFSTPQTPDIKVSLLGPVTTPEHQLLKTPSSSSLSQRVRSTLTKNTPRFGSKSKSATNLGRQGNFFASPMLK
Kind of assay: blockers of MgcRacGAP-driven Rac1 GTP hydrolysis – biochemical, ADP Hunter fluorescence, primary and confirmatory, confirmation (AID 624330). Format: functional.

Assay [3] in a line: Luminescence Cell-Based Dose Confirmation to Identify Activators of 5'UTR Stem-Loop Driven Alpha-Synuclein mRNA Translation in H4 Neuroglioblastoma Cells. [Related pubchem assays: 1829 (Project Summary), 1814 (Primary HTS)]. Format: functional.
The nature of assay [4]: Luminescence Cell-Based Dose Confirmation HTS to Identify Activators of 5'UTR Stem-Loop Driven Alpha-Synuclein mRNA Translation in H4 Neuroglioblastoma Cells. [Related pubchem assays: 1829 (Project Summary), 1814 (Primary HTS)]. Format: functional.
Assay [5] in a line: Luminescence Cell-Based Dose Response to Identify Activators of 5'UTR Stem-Loop Driven Prion Protein mRNA Translation in H4-C Neuroglioblastoma Cells. [Related pubchem assays: 1829 (Project Summary), 1814 (Primary HTS)]. Format: functional.
A short description of assay [6]: Luminescence Cell-Based Dose Response HTS to Identify Activators of Luciferase Translation or Activity in H4 […] Cells. [Related pubchem assays: 1829 (Project Summary), 1814 (Primary HTS)]. Format: functional.
A short description of assay [7]: Luminescence Cell-Based Dose Response to Identify Activators of Luciferase Translation or Activity in H4-C Neuroglioblastoma Cells. [Related pubchem assays: 1829 (Project Summary), 1814 (Primary HTS)]. Format: functional.
The next assay deals with H4. Kind of assay: Luminescence Cell-Based Dose Response HTS to Identify Activators of 5'UTR Stem-Loop Driven Prion Protein mRNA Translation in H4 Neuroglioblastoma Cells. [Related pubchem assays: 1829 (Project Summary), 1814 (Primary HTS)]. Format: functional. Conditions: Homo sapiens.
For assay [8], the target named is T2, Carboxy-terminal domain RNA polymerase II polypeptide A small phosphatase 1 (Homo sapiens, UniProt Q9GZU7).
T2 sequence (Q9GZU7 whole entry): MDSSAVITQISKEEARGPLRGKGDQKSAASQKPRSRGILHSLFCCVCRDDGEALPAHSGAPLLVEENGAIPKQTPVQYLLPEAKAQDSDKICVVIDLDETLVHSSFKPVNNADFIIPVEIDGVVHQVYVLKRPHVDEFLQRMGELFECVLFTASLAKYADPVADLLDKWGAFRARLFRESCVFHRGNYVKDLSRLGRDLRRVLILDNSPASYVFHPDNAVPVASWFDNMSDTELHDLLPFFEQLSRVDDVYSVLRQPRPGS
Kind of assay: CTDSP1 inhibitors, concentration-response, biochemical, absorbance readout, ultra-high-throughput screen actives (AID 540297). Format: functional.

For assay [9], the target named is T3, Zinc finger protein mex-5 (Caenorhabditis elegans, UniProt Q9XUB2).
T3 sequence (Q9XUB2 whole entry): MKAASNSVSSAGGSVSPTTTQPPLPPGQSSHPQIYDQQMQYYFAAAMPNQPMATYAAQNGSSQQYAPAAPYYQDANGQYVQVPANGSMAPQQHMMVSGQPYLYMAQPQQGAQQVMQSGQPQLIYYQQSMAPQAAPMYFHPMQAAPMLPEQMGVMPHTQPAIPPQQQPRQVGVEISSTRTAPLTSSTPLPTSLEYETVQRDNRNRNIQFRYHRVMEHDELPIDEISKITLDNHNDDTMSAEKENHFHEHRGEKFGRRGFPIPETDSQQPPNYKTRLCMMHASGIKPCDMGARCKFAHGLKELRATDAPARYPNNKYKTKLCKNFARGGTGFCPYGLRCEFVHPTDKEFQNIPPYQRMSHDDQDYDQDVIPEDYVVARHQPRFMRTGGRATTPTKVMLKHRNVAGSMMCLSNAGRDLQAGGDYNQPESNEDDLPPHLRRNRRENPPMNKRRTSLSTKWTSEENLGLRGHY
Kind of assay: potency of MEX-5 RNA-binding blockers – biochemical, C. elegans, fluorescence polarization, dose response (AID 1960).

In assay [10] the target is T4, RNA-binding protein pos-1 (Caenorhabditis elegans, UniProt G5EF15).
T4 sequence (G5EF15 whole entry): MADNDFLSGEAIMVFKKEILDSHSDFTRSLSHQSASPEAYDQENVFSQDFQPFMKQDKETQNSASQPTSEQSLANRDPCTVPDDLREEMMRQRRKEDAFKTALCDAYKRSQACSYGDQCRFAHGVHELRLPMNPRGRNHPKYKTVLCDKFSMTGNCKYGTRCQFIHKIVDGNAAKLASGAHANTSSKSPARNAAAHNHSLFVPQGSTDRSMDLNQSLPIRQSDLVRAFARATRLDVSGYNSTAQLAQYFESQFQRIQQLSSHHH
Kind of assay: disruptors of C. elegans POS-1 RNA interaction – biochemical, fluorescence polarization, dose response (AID 1964).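 Note: purified POS-1 fused to maltose binding protein made in E. coli; potency of compounds blocking POS-1 binding to fluorescent RNA.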

Another assay deals with T5, Caspase-6 (Homo sapiens, UniProt P55212).
T5 sequence (P55212 whole entry): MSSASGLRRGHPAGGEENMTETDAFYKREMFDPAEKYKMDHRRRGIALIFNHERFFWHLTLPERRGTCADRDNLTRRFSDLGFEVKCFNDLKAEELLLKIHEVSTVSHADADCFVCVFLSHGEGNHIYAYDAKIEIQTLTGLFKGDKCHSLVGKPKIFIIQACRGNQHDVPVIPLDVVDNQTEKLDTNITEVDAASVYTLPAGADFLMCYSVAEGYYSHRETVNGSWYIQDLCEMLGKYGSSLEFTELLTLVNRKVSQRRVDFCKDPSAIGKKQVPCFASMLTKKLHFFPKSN
Kind of assay: inhibition of CASP6 peptide cleavage – biochemical, VEID-R110 fluorescence, cherry-pick, dose response (AID 720632).

For assay [11], the target named is T6, Histone-lysine N-methyltransferase NSD2 (Homo sapiens, UniProt O96028).
T6 sequence (O96028 whole entry): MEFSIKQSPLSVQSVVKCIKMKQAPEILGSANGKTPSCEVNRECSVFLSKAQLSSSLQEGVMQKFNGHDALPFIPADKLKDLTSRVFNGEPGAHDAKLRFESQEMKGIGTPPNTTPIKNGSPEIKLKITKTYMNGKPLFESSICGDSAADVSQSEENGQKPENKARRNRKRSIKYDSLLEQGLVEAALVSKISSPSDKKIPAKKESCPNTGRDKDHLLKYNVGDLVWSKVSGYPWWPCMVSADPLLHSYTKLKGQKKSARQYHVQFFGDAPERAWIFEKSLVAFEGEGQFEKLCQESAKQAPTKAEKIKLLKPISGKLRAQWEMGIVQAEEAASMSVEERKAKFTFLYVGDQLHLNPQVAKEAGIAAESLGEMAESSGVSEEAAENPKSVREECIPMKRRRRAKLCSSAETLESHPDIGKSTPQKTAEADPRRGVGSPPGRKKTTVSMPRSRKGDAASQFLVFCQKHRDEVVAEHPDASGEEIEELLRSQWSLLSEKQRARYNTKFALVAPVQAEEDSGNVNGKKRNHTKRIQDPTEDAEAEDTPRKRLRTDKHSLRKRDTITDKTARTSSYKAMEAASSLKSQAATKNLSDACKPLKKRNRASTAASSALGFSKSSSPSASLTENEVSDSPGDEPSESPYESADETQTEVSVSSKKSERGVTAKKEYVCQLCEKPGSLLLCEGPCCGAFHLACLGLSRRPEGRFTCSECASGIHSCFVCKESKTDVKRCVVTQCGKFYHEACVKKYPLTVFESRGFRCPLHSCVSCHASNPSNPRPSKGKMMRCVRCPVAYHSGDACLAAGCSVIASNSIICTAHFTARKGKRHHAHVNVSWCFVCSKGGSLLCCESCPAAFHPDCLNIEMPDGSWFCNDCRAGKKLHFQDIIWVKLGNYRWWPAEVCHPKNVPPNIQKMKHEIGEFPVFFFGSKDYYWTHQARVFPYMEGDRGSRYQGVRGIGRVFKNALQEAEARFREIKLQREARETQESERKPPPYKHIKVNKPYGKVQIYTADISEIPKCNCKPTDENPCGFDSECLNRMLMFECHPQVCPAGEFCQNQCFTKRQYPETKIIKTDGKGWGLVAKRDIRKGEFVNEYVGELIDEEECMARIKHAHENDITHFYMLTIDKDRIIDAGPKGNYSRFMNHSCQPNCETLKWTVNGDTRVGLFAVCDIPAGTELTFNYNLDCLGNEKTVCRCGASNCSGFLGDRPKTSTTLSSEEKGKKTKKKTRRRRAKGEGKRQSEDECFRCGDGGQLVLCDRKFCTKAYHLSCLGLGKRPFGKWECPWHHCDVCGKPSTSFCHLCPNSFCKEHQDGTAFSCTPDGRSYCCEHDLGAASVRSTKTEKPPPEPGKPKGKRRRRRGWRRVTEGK
Format: biochemical.

Assay [12] is described as follows: growth inhibition of yeast DHODH-expressing 3D7 parasites – SYBR Green, dry powder samples, dose response (AID 1159570).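 Note: parasite growth measured after 72 hours of compound exposure.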 Format: functional, cell-based.
Assay [13] is described as follows: toxicity to human HepG2 hepatoma cells – cell-based, plate reader, dry powder samples, cytotoxicity control, dose response (AID 1159569).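 Note: inhibitor potency with signal falling toward the positive control level.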 Format: functional.
Assay [14] is described as follows: Dd2 malaria parasite growth inhibition potency – SYBR Green, dry powder samples, dose response (AID 1159566).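 Note: potency for growth inhibition with lower SYBR green DNA signal.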 Format: functional, cell-based.
Assay [15] in a line: P. falciparum Dd2 growth inhibitors, dose response, SYBR Green, cherry-picked samples (AID 1159567). Format: functional, cell-based.
The nature of assay [16]: growth inhibition of PfATP4-mutant resistant parasites – NITD609-resistant line, SYBR Green, dry powder, dose response (AID 1159571).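 Note: parasites synchronized at ring stage by sorbitol before testing.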 Format: functional, cell-based.
Assay [17] can be described thus: toxicity to human hepatoma HepG2 cells – cell-based, cherry-picked samples, cytotoxicity control, dose response (AID 1159577). Format: functional.

Active and inactive are the calls of the source.

The results in this text go back to ChEMBL document CHEMBL1201862, “PubChem BioAssay data set” (2004).

Turning to `COc1cc(Br)c(CNc2cc(C)ccc2C)cc1OC`, in assay [1], the CC50 was 12600 nM (active). In addition, in assay [2], the 50% inhibitory concentration (IC50) was 97400 nM (active).
`CN(C)/C=C1\C(=O)N(c2ccc(Cl)cc2)CS1(=O)=O`: the concentration giving a half-maximal response (EC50) is 697 nM (active) in assay [3]; < 100 nM (active) in assay [4]; 1520 nM (active) in assay [5]; 63600 nM (active) in assay [6]; 648 nM (active) in [7]; > 120000 nM (not active) in the assay on H4.
In the case of `Nc1c(C(=O)N2CCCCC2)sc2nc3c(cc12)CCCC3`, the EC50 in [3] was 322 nM (active); in assay [5], 682 nM (active); in [6], < 100 nM (active); in assay [7] it was 923 nM (active).
Regarding `Cc1cc(C=O)c(C)n1-c1cc(C(=O)O)cc(C(=O)O)c1`, the concentration for half-maximal inhibition (IC50) in assay [8] is 3160 nM (active). For the same compound, the half-maximal effective concentration (EC50) in assay [9] and in assay [10] was > 300000 nM (not active) in each case. For the same compound, the AC50 at Caspase-6 was 1710 nM (active); in [11], > 20000 nM (inactive).
Take `COc1ccc(OC)c(NC(=O)CSc2nc3ccccc3c(=O)n2CC2CCCO2)c1` (centres undefined): the CC50 in [1] was > 40000 nM (active).
As for `NCCC(=O)N1c2ccccc2Sc2ccccc21`, the CC50 in assay [1] was > 40000 nM (active).
Consider `CCCN1[C@H](CO)[C@H](c2ccc(C3=CCCC3)cc2)[C@H]1CN(C(C)=O)C1CCCC1`, for which the AC50 in assay [12] was 3260 nM (active); in assay [13], 72100 nM (active); in [14], 1750 nM (active); in [15] it was 1920 nM (active); in assay [16], 1600 nM (active).
Regarding `OC[C@@H]1Nc2ccc(C#Cc3cccc(F)c3)cc2[C@H]2NCC[C@@H]12`, the concentration at half-maximal activity (AC50) in [12] is 1150 nM (active); in assay [13] it was 17500 nM (active); in assay [17], 25600 nM (active); in assay [14], 804 nM (active); in [15], 3010 nM (active); in [16] it was 2340 nM (active).
Regarding `N#C[C@@H]1[C@@H](c2ccccc2C2=CCCC2)[C@@H](CO)N1C(=O)NC1CCCC1`, the AC50 in [12] was 10900 nM (active); in assay [13] it was 56800 nM (active); in [14], 592 nM (active); in assay [15], 791 nM (active); in [16], 744 nM (active).
Consider `COc1ccc(C#Cc2cccc(-c3nc(C(=O)Nc4ccc(-c5ccccc5)cc4)cc4c3[C@@H](CCO)N([S+]([O-])C(C)(C)C)C4)c2)cc1OC` (some centres undefined), for which the AC50 in assay [12] was 1120 nM (active); in assay [13], 24100 nM (active); in assay [17] it was > 39000 nM (inactive); in assay [14] it was 486 nM (active); in [15], 995 nM (active); in assay [16] it was 621 nM (active).
Turning to `C[C@H](CO)N1C[C@H](C)[C@@H](CN(C)C(=O)CCCN(C)C)OCc2cnnn2CCCC1=O`, in assay [17], the AC50 was > 42000 nM (inactive).
As to `COc1cccc(CN2C[C@@H]3N[C@H](C2)[C@@H]3c2ccc(-c3ccc(C#N)cc3)cc2)c1`, the half-maximal activity concentration (AC50) was 9630 nM (active) in assay [17] and 3090 nM (active) in assay [15].
